Experimental data from ChEMBL document CHEMBL5579829, “Discovery of a potent CDKs/FLT3 PROTAC with enhanced differentiation and proliferation inhibition for AML” (Eur J Med Chem, 2024).
The source made the active and inactive calls. The calls are words filed in the database; no cut-off is given here.

Columns and labels:
[1] = target: T1, Protein cereblon/Cyclin-dependent kinase 2 (Homo sapiens, UniProt P24941+Q96SW2); assay: Protac activity at CRBN/CDK2 in human HL-60 cells assessed as induction of CDK2 degradation by Western blot analysis; type: cell-based
[2] = target: T1, Protein cereblon/Cyclin-dependent kinase 2; assay: Protac activity at CRBN/CDK2 in human HL-60 cells assessed as induction of CDK2 degradation by Western blot analysis relative to control; type: cell-based
[3] = test system: HL-60; assay: Antiproliferative activity against human HL-60 cells measured after 1 to 3 days by CCK-8 assay; type: functional, cell-based
[4] = target: T1, Protein cereblon/Cyclin-dependent kinase 2; assay: Protac activity at CRBN/CDK2 in human HL-60 cells assessed as induction of CDK2 degradation measured after 24 hrs by Western blot analysis relative to control; type: cell-based
[5] = target: T1, Protein cereblon/Cyclin-dependent kinase 2; assay: Protac activity at CRBN/CDK2 in human HL-60 cells assessed as induction of CDK2 degradation measured after 24 hrs by Western blot analysis; type: cell-based
[6] = target: T1, Protein cereblon/Cyclin-dependent kinase 2; assay: Protac activity at CRBN/CDK2 in human HL-60 cells assessed as induction of CDK2 degradation at 10 nM measured at 12 hrs by Western blot analysis; type: cell-based
[7] = target: T1, Protein cereblon/Cyclin-dependent kinase 2; assay: Protac activity at CRBN/CDK2 in human HL-60 cells assessed as induction of CDK2 degradation at 10 nM measured after 24 hrs in presence of NEDD8-activated E1 enzyme inhibitor MLN4924 by Western blot analysis; type: cell-based
[8] = target: T1, Protein cereblon/Cyclin-dependent kinase 2; assay: Protac activity at CRBN/CDK2 in human HL-60 cells assessed as induction of CDK2 degradation at 10 nM measured after 24 hrs in presence of CDK2 inhibitor FN-150 by Western blot analysis; type: cell-based
[9] = test system: HL-60; assay: Induction of pro-differentiation of human HL-60 cells assessed as increase in CD11b expression measured after 3 to 5 days by immunostaining-based flow cytometry; type: functional, cell-based; conditions: dose 1-6.25 nM, time 3-5 day
[10] = test system: HL-60; assay: Induction of pro-differentiation of human HL-60 cells assessed as CD11b expression at 1 nM measured after 3 days by immunostaining-based flow cytometry (reference value: 8.32 to 10.55%); type: functional; conditions: time 3 day
[11] = test system: HL-60; assay: Induction of pro-differentiation of human HL-60 cells assessed as CD11b expression at 1 nM measured after 5 days by immunostaining-based flow cytometry (reference value: 10.08 to 10.33%); type: functional; conditions: time 5 day
[12] = test system: HL-60; assay: Induction of pro-differentiation of human HL-60 cells assessed as CD11b expression at 4 nM measured after 5 days by immunostaining-based flow cytometry (reference value: 10.08 to 10.33%); type: functional; conditions: time 5 day
[13] = test system: HL-60; assay: Induction of pro-differentiation of human HL-60 cells assessed as increase in CD11b expression at 6.25 nM measured after 5 days by immunostaining-based flow cytometry relative to control; type: functional; conditions: time 5 day
[14] = test system: HL-60; assay: Induction of pro-differentiation of human HL-60 cells assessed as increase in CD11b expression at 6.25 nM measured after 3 days by immunostaining-based flow cytometry relative to 500 nM CPS2; type: functional; conditions: time 3 day
[15] = test system: HL-60; assay: Induction of pro-differentiation of human HL-60 cells assessed as increase in CD11b expression at 6.25 nM measured after 5 days by immunostaining-based flow cytometry relative to 500 nM CPS2; type: functional; conditions: time 5 day
[16] = test system: THP-1; assay: Antiproliferative activity against human THP-1 cells measured after 1 to 3 days by CCK-8 assay; type: functional, cell-based
[17] = test system: Kasumi 1; assay: Antiproliferative activity against human Kasumi 1 cells measured after 1 to 3 days by CCK-8 assay; type: functional, cell-based
[18] = test system: MOLM-13; assay: Antiproliferative activity against human MOLM-13 cells measured after 1 to 3 days by CCK-8 assay; type: functional, cell-based
[19] = test system: NB-4; assay: Antiproliferative activity against human NB4 cells measured after 1 to 3 days by CCK-8 assay; type: functional, cell-based
[20] = test system: OCI-AML2; assay: Antiproliferative activity against human OCI-AML2 cells measured after 1 to 3 days by CCK-8 assay; type: functional, cell-based
[21] = target: T2, Protein cereblon/Cyclin-dependent kinase 4 (Homo sapiens, UniProt P11802+Q96SW2); assay: Protac activity at CRBN/CDK4 in human HL-60 cells assessed as induction of CDK4 degradation measured after 3 days by Western blot analysis; type: cell-based
Target sequence in this assay (P11802 whole entry): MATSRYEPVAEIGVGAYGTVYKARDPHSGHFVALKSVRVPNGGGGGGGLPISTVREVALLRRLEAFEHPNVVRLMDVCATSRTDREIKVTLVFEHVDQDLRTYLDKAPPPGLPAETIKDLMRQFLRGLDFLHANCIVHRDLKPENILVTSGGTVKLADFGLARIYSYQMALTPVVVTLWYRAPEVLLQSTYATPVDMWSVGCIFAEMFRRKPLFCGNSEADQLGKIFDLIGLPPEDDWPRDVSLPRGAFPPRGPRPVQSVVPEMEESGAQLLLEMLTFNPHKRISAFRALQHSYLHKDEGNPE
Target sequence in this assay (Q96SW2 whole entry): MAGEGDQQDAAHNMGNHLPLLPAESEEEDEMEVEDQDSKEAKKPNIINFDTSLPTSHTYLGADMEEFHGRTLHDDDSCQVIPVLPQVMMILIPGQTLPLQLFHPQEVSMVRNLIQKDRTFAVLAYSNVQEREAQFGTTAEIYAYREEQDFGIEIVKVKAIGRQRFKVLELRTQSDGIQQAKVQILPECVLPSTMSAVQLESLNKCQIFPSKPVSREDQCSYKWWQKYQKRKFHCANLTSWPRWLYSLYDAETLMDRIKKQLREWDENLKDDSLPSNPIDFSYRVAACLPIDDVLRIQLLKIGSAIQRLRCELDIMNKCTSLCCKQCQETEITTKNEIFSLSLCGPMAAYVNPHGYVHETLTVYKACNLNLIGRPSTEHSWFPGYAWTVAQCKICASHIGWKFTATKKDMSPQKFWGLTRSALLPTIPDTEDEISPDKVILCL

[22] = target: T3, Protein cereblon/Cyclin-dependent kinase 9 (Homo sapiens, UniProt P50750+Q96SW2); assay: Protac activity at CRBN/CDK9 in human HL-60 cells assessed as induction of CDK9 degradation measured after 3 days by Western blot analysis; type: cell-based
Target sequence in this assay (P50750 whole entry): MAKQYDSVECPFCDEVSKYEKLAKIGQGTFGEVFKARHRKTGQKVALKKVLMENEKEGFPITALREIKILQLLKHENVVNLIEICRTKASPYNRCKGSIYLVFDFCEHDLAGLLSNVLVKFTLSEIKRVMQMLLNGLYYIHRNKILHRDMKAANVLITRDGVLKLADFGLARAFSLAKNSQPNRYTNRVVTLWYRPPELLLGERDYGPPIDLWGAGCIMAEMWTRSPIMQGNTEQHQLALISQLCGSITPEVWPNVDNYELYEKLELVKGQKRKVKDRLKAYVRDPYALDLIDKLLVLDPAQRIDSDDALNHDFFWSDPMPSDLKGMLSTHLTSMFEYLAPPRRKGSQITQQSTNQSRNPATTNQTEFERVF
Target sequence in this assay (Q96SW2 whole entry): as the sequence (Q96SW2 whole entry) above

[23] = target: T1, Protein cereblon/Cyclin-dependent kinase 2; assay: Protac activity at CRBN/CDK2 in human MV4-11 cells assessed as induction of CDK2 degradation at 2 to 32 nM measured after 3 days by Western blot analysis; type: cell-based; conditions: dose 2-32 nM, time 3.0 day
[24] = test system: Protein cereblon/Receptor-type tyrosine-protein kinase FLT3 (Homo sapiens), P36888+Q96SW2 [UNDEFINED MUTATION]; assay: Protac activity at CRBN/FLT3-ITD mutant in human MV4-11 cells assessed as induction of FLT3 degradation at 2 nM measured after 3 days by Western blot analysis relative to control; type: cell-based; conditions: time 3.0 day
Chain of Protein cereblon/Receptor-type tyrosine-protein kinase FLT3 (Homo sapiens), P36888+Q96SW2 [UNDEFINED MUTATION] (P36888 whole entry, looked up, change not shown): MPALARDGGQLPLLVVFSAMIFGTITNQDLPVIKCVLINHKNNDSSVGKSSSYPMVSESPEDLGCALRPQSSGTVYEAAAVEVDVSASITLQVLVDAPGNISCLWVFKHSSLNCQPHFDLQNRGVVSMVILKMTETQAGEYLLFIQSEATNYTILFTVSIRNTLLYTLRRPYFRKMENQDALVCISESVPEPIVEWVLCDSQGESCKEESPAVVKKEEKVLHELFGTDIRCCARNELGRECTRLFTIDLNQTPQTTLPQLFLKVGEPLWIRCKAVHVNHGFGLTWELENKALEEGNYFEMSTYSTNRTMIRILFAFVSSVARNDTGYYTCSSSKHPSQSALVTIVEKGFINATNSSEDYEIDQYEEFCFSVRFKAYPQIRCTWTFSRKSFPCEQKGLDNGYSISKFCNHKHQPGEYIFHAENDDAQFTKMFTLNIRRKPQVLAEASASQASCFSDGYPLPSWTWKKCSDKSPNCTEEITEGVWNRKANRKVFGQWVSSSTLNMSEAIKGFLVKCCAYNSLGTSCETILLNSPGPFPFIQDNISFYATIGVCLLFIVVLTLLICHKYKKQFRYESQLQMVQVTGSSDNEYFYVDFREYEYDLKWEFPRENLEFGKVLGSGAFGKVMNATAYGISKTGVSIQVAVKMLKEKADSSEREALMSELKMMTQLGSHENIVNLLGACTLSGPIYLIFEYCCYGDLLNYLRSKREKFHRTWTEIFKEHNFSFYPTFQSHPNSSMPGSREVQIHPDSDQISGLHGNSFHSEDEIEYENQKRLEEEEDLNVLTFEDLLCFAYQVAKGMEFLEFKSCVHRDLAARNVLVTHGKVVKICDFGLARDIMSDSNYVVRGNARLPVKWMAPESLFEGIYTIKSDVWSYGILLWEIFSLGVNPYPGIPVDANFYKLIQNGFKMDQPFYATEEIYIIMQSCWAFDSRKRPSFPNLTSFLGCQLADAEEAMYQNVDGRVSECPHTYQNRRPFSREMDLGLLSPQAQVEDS
Chain of Protein cereblon/Receptor-type tyrosine-protein kinase FLT3 (Homo sapiens), P36888+Q96SW2 [UNDEFINED MUTATION] (Q96SW2 whole entry, looked up, change not shown): as the sequence (Q96SW2 whole entry) above

[25] = target: T1, Protein cereblon/Cyclin-dependent kinase 2; assay: Protac activity at CRBN/CDK2 in human Kasumi 1 cells assessed as induction of CDK2 degradation at 2 to 32 nM measured after 3 days by Western blot analysis; type: cell-based; conditions: dose 2-32 nM, time 3.0 day
[26] = target: T4, Protein cereblon/Cyclin-dependent kinase 6 (Homo sapiens, UniProt Q00534+Q96SW2); assay: Protac activity at CRBN/CDK6 in human Kasumi 1 cells assessed as induction of CDK6 degradation at 2 to 32 nM measured after 3 days by Western blot analysis; type: cell-based; conditions: dose 2-32 nM, time 3.0 day
T4 sequence (Q00534 whole entry, looked up): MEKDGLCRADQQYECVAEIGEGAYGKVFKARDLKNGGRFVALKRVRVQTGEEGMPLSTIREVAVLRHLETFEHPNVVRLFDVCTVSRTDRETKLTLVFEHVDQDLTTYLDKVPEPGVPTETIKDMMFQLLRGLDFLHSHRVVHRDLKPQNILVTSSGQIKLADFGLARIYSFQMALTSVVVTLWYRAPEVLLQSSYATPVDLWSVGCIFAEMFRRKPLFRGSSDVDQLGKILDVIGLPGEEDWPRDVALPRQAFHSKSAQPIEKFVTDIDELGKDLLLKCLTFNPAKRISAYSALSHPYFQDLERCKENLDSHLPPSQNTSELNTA
T4 sequence (Q96SW2 whole entry, looked up): as the sequence (Q96SW2 whole entry) above

[27] = target: T3, Protein cereblon/Cyclin-dependent kinase 9; assay: Protac activity at CRBN/CDK9 in human Kasumi 1 cells assessed as induction of CDK9 degradation at 2 to 32 nM measured after 3 days by Western blot analysis; type: cell-based; conditions: dose 2-32 nM, time 3.0 day
Target sequence in this assay (P50750 whole entry, looked up): as the sequence (P50750 whole entry) above
Target sequence in this assay (Q96SW2 whole entry, looked up): as the sequence (Q96SW2 whole entry) above

[28] = test system: Protein cereblon/Receptor-type tyrosine-protein kinase FLT3 (Homo sapiens), P36888+Q96SW2 [UNDEFINED MUTATION]; assay: Protac activity at CRBN/FLT3-ITD mutant in human Kasumi 1 cells assessed as induction of FLT3 degradation at 2 to 32 nM measured after 3 days by Western blot analysis; type: cell-based; conditions: dose 2-32 nM, time 3.0 day
[29] = target: T1, Protein cereblon/Cyclin-dependent kinase 2; assay: Protac activity at CRBN/CDK2 in human THP-1 cells assessed as induction of CDK2 degradation at 4 to 64 nM measured after 3 days by Western blot analysis; type: cell-based; conditions: dose 4-64 nM, time 3.0 day
[30] = target: T2, Protein cereblon/Cyclin-dependent kinase 4; assay: Protac activity at CRBN/CDK4 in human THP-1 cells assessed as induction of CDK4 degradation at 4 to 64 nM measured after 3 days by Western blot analysis; type: cell-based; conditions: dose 4-64 nM, time 3.0 day
Target sequence in this assay (P11802 2-303 limits assumed): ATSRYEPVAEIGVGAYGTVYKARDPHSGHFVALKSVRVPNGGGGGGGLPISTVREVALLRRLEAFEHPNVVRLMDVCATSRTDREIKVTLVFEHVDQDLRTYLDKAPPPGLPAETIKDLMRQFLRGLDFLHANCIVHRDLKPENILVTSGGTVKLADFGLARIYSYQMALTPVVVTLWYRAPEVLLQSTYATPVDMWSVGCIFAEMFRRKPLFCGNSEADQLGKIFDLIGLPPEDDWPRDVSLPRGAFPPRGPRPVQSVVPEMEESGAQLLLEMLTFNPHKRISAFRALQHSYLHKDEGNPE
Target sequence in this assay (Q96SW2 whole entry partner): as the sequence (Q96SW2 whole entry) above

[31] = target: T4, Protein cereblon/Cyclin-dependent kinase 6; assay: Protac activity at CRBN/CDK6 in human THP-1 cells assessed as induction of CDK6 degradation at 4 to 64 nM measured after 3 days by Western blot analysis; type: cell-based; conditions: dose 4-64 nM, time 3.0 day
[32] = target: T3, Protein cereblon/Cyclin-dependent kinase 9; assay: Protac activity at CRBN/CDK9 in human THP-1 cells assessed as induction of CDK9 degradation at 4 to 64 nM measured after 3 days by Western blot analysis; type: cell-based; conditions: dose 4-64 nM, time 3.0 day
Target sequence in this assay (P50750 whole entry, looked up): as the sequence (P50750 whole entry) above
Target sequence in this assay (Q96SW2 whole entry, looked up): as the sequence (Q96SW2 whole entry) above

[33] = target: T5, Protein cereblon/Cyclin-dependent kinase 5 (Homo sapiens) (UniProt Q00535+Q96SW2); assay: Protac activity at CRBN/CDK5 in human THP-1 cells assessed as induction of CDK5 degradation at 4 to 64 nM measured after 3 days by Western blot analysis; type: cell-based; conditions: dose 4-64 nM, time 3.0 day
T5 sequence (Q00535 whole entry, looked up): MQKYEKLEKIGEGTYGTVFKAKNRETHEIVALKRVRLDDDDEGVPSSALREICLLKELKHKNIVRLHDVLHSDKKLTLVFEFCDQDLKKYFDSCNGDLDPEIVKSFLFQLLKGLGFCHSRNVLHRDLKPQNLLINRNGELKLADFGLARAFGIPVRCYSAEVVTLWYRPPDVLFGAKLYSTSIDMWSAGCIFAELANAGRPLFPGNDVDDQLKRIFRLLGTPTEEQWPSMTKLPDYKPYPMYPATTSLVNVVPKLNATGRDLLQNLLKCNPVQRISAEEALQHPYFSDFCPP
T5 sequence (Q96SW2 whole entry, looked up): as the sequence (Q96SW2 whole entry) above

[34] = target: T5, Protein cereblon/Cyclin-dependent kinase 5 (Homo sapiens); assay: Protac activity at CRBN/CDK5 in human MV4-11 cells assessed as induction of CDK5 degradation at 2 to 32 nM measured after 3 days by Western blot analysis; type: cell-based; conditions: dose 2-32 nM, time 3.0 day

## O=C1CCC(N2C(=O)c3ccc(N4CCC(CN5CCN(Cc6ccc(NC(=O)c7n[nH]cc7Nc7ncnc8[nH]ccc78)cc6)CC5)CC4)cc3C2=O)C(=O)N1 (centres undefined)
[1]
  DC50: 12.7 nM
[2]
  Emax: 81.9%
[3]
  IC50: 10.5 nM
[4]
  Emax: 86.8%
[5]
  DC50: 18.7 nM
[6]
  Activity: Active
[7]
  Activity: inactive
[8]
  Activity: inactive
[9]
  Activity: Dose-Dependent Effect
[10]
  Activity: 23.74%
[11]
  Activity: 29.85%
[12]
  Activity: 58.59%
[13]
  fold change (FC): 7.2
[14]
  fold change (FC): 2.2
[15]
  fold change (FC): 2.1
[16]
  IC50: 37.1 nM
[17]
  IC50: 3.99 nM
[18]
  IC50: 4.52 nM
[19]
  IC50: 4.94 nM
[20]
  IC50: 17.9 nM
[21]
  DC50: 4.41 nM
[22]
  DC50: 4.34 nM
[23]
  Activity: Active
[24]
  Activity: 77%
[25]
  Activity: Active
[26]
  Activity: Active
[27]
  Activity: Active
[28]
  Activity: Active
[29]
  Activity: Active
[30]
  Activity: Active
[31]
  Activity: Active
[32]
  Activity: Active
[33]
  Activity: inactive
[34]
  Activity: inactive
